Experimental data: article PMC7094222 (Febs Letters, 2015)

Columns and labels:
Format in all cases: biochemical, Human Coxsackievirus B3
[1] = target: T1, CVB3 3C^pro (Coxsackievirus B3, UniProt P03313); assay: FRET-based enzyme assay of CVB3 3C^pro
[2] = target: T1, CVB3 3C^pro; assay: Reversibility test by large and rapid dilution of enzyme-inhibitor complex; conditions: 50-fold IC50 pre-incubated 30 min at 35 °C, then diluted 50-fold
[3] = target: T1, CVB3 3C^pro; assay: Enzyme kinetics study

T1 sequence (P03313 1541-1723): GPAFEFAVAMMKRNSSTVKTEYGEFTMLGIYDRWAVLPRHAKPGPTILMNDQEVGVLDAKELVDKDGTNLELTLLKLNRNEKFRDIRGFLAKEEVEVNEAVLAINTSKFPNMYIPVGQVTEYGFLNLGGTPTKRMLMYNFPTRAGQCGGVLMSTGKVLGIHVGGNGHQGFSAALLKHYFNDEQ

NC(CO)C(=O)N/N=C\c1ccc(O)c(O)c1O (centres unmarked) [8a, (Z)-2-amino-3-hydroxy-N'-(2,3,4-trihydroxybenzylidene)propanehydrazide]
IC50 [1]: 2.72 µM

NC(CO)C(=O)NNCc1ccc(O)c(O)c1 (centres unmarked) [9e, 2-amino-N'-(3,4-dihydroxybenzyl)-3-hydroxypropanehydrazide]
inhibition at 50 µM ([1]; read-out: % Inhibition 50 μM): 56.2%

NC(CO)C(=O)NNCc1ccc(O)c(O)c1O (centres unmarked) [Benserazide, 2-amino-3-hydroxy-N'-(2,3,4-trihydroxybenzyl)propanehydrazide]
reversibility of inhibition [2]: reversible pattern | Ki [3]: 4.7 µM | mechanism of the inhibition ([3]; inhibitor 0–10 μM, substrate 0–400 μM, V max reduced without a change in K m): non-competitive inhibitor
